Here are results for one compound from paper PMC7044277 (Nature Communications, 2020).

Holding throughout (format): cell-based
Assay [1] concerns the target T1, 320 non-olfactory GPCRs (Homo sapiens, UniProt Q99705).
T1 construct: expressed in transfected cells; host or cells: HTLA cells
The conditions noted are these: receptor MCHR1R; replicate values, Fig_4g.

The target of assay [2] is T2, 320 non-olfactory GPCRs (Homo sapiens, UniProt Q8IZF3).
T2 construct: expressed in transfected cells; host or cells: HTLA cells
T2 sequence (Q8IZF3 22-695): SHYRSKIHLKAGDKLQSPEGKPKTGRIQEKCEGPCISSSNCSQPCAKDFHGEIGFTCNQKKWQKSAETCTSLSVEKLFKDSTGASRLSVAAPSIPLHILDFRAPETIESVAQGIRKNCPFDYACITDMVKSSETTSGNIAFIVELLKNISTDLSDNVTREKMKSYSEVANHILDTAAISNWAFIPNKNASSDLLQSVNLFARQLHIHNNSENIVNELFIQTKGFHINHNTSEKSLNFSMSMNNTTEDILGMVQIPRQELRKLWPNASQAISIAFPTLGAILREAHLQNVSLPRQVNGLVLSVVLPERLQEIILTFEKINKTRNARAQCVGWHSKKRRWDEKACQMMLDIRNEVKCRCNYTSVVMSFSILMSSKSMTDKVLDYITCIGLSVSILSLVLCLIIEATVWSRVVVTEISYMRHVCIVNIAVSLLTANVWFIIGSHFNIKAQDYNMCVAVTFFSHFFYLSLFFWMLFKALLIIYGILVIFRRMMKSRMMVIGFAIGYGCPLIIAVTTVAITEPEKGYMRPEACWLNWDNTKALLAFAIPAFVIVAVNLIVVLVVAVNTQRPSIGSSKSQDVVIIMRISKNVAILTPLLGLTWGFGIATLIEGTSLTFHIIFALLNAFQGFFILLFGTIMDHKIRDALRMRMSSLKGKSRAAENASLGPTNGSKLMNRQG

Assay [3] deals with T3, 320 non-olfactory GPCRs (Homo sapiens, UniProt P25929).
T3 construct: expressed in transfected cells; host or cells: HTLA cells
T3 sequence (P25929 whole entry): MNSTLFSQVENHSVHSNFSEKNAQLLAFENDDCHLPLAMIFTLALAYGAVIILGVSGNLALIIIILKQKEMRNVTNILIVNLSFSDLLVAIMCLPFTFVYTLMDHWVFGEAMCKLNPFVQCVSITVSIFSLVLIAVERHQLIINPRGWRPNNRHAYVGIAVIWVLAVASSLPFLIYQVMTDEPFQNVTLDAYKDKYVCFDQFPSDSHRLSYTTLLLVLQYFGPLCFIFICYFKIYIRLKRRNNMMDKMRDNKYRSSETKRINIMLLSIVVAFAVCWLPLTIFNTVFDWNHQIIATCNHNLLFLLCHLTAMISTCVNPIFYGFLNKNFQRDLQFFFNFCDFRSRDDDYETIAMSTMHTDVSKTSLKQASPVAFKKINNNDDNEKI
Conditions: receptor NPY1R; replicate values, Fig_4g.

For assay [4], the target named is T4, 320 non-olfactory GPCRs (Homo sapiens, UniProt P47900).
T4 construct: expressed in transfected cells; host or cells: HTLA cells
T4 sequence (P47900 whole entry): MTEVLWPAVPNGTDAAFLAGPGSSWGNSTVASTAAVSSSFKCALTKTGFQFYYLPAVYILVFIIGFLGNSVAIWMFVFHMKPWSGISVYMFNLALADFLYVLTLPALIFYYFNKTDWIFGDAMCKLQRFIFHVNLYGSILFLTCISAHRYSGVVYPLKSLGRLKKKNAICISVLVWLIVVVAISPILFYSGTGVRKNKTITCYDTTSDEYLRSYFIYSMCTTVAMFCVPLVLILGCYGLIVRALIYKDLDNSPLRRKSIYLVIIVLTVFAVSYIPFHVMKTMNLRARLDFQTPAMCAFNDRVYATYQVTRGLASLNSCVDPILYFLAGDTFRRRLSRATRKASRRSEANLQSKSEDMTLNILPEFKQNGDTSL
Conditions: receptor P2RY1; replicate values, Fig_4g.

Each structure is given as a SMILES string. Several values for one entry are separate records, joined by “and”; a condition that tells them apart may be missing. Identical values can stand only once.
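Wherever Fold of Basal is given: compound tested at 1 µM final concentration.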
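Wherever GPCRome agonism screen response is given: fold over basal response of each receptor without drug.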

T1 sequence (Q99705 whole entry): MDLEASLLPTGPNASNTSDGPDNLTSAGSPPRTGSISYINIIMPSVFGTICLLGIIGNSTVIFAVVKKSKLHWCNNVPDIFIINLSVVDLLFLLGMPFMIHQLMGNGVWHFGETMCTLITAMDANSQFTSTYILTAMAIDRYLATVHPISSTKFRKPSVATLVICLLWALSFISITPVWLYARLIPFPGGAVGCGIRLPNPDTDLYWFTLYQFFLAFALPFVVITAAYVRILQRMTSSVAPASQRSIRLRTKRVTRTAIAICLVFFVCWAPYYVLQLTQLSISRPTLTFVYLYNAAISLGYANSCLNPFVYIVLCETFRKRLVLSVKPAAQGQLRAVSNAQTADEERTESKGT

Consider `CCOc1cccc2cc(C(C)NCC3(O)CCCCC3)oc12` (stereo not shown) [O4LE6], for which the “GPCRome agonism screen response” value on 320 non-olfactory GPCRs [1] was 0.7534 and 1.295 and 1.833 and 1.448; on 320 non-olfactory GPCRs [3], 0.9657 and 1.278 and 0.9923 and 0.817; at 320 non-olfactory GPCRs [4], 1.006 and 0.5483 and 1.2859 and 1.3533. Moreover, at 320 non-olfactory GPCRs [2], the “Fold of Basal” value is 1.314 and 0.8065 and 0.6945.
